Data as given in patent publication US20250144067A1, “PERSONALIZED STARVATION THERAPY FOR CANCER” (Faeth Therapeutics, Inc., priority 2021, published 2025).
Where a name gives a salt, the structure may show the parent alone.

Assays:
[1] = test system: NCI-H292 lung cancer cells; test: FDA drug screening, complete media vs cholesterol-free media with simvastatin (TABLE 2); format: cell-based, human; settings: for Cholesterol-free media + simvastatin (0.04 μM) / Complete Media: NCI-H292 cells
[2] = test system: NCI-H292 lung cancer cells; test: FDA drug screening, complete media vs cholesterol-free media without statin (TABLE 1); format: cell-based, human
[3] = FDA library drug in cholesterol-free media with simvastatin 0.04 μM
[4] = FDA library drug in complete media
[5] = complete media vs cholesterol-free media + simvastatin (0.04 μM), >0 enhanced anti-cancer activity, about 0 neutral, <0 antagonist
[6] = Complete minus Cholesterol-free, greater than 0 enhanced anti-cancer activity, about 0 neutral, below 0 antagonist
[7] = NCI-H292 cells, FDA drug library screen, cholesterol-free media without statin
[8] = NCI-H292 cells, FDA drug library screen, complete media
[9] = cholesterol-free media with simvastatin 0.04 μM, FDA drug library screen (TABLE 2)
[10] = complete media, FDA drug library screen (TABLE 2)
[11] = complete media minus cholesterol-free media + simvastatin (0.04 μM), >0 enhanced anti-cancer activity, about 0 neutral, <0 antagonist
[12] = Complete minus Cholesterol-free, greater than 0 enhanced anti-cancer activity, about 0 neutral, below 0 antagonists
[13] = NCI-H292 cells in cholesterol-free media without statin
[14] = NCI-H292 cells in complete media
[15] = NCI-H292 cells, cholesterol-free media without statin
[16] = complete vs cholesterol-free media, greater than 0 enhanced anti-cancer activity, about 0 neutral, below 0 antagonists
[17] = Complete minus Cholesterol-free, >0 enhanced anti-cancer activity, about 0 neutral, <0 antagonist
[18] = NCI-H292 cells, cholesterol-free media without statin, FDA drug library screen
[19] = NCI-H292 cells, complete media, FDA drug library screen
[20] = FDA drug library screen, cholesterol-free media with simvastatin 0.04 μM
[21] = FDA drug library screen, complete media
[22] = complete vs cholesterol-free media, >0 enhanced anti-cancer activity, about 0 neutral, <0 antagonist

In the case of `Cc1ccc(/C(=C\CN2CCCC2)c2ccccn2)cc1` [Triprolidine (hydrochloride monohydrate)], the “Cholesterol-free media + simvastatin (0.04 μM)” value [1, 3] is reported as 1.806, the “Complete Media” value [1, 4] is reported as 1.191 and the Difference [1, 5] is reported as −0.61. For the same compound, the Difference [2, 6] was −0.13, the Cholesterol-free [2, 7] was 1.24 and the Complete [2, 8] was 1.107.

For `CCCCCCCCCCCCCCCCCCOCC(O)CO` (stereo not drawn) [Batilol], the “Cholesterol-free media + simvastatin (0.04 μM)” value [1, 9] was 0.9215, the “Complete Media” value [1, 10] was 0.9293 and the Difference [1, 11] was 0.01. For the same compound, the Difference [2, 12] was −0.55, the Cholesterol-free [2, 13] was 1.321 and the Complete [2, 14] was 0.7704.

`CNCCCC12CCC(c3ccccc31)c1ccccc12` [Maprotiline (hydrochloride)] was tested, and the “Cholesterol-free media + simvastatin (0.04 μM)” value [1, 3] was 1.215, the “Complete Media” value [1, 4] was 0.924 and the Difference [1, 5] was −0.29. For the same compound, the Cholesterol-free [2, 15] was 1.347, the Complete ([2]; NCI-H292 cells, complete media) was 0.9995 and the Difference [2, 16] was −0.35.

With `Cl.NCCC[C@](N)(C(=O)O)C(F)F` [L-Eflornithine (monohydrochloride)] the “Cholesterol-free media + simvastatin (0.04 μM)” value [1, 9] was 1.266, the “Complete Media” value [1, 10] was 1.268 and the Difference [1, 11] was 0.00. The Difference [2, 17] was 0.02, the Cholesterol-free [2, 18] was 0.8255 and the Complete [2, 19] was 0.8469.

For `CCN[C@H]1C[C@H](C)S(=O)(=O)c2sc(S(N)(=O)=O)cc21` [Dorzolamide (hydrochloride)], the “Cholesterol-free media + simvastatin (0.04 μM)” value [1, 3] was 0.9476, the “Complete Media” value [1, 4] was 0.6459 and the Difference [1, 5] was −0.30. For the same compound, the Difference [2, 6] was −0.11, the Cholesterol-free [2, 7] was 1.045 and the Complete [2, 8] was 0.9378.

With Naloxegol (oxalate) the “Cholesterol-free media + simvastatin (0.04 μM)” value [1, 20] was 0.8544, the Difference ([1]; complete media minus cholesterol-free media + simvastatin, […]) was 0.21 and the Difference ([2]; Complete minus Cholesterol-free, […]) was −0.15. It also gave a Cholesterol-free [2, 7] of 1.025.

`CCOCC(O)COc1ccc(NC(=O)CC[S+](C)C)cc1.Cc1ccc(S(=O)(=O)[O-])cc1` (stereo not drawn) [Suplatast (Tosilate)] was tested, and the “Cholesterol-free media + simvastatin (0.04 μM)” value [1, 20] was 2.447, the Difference ([1]; complete media minus cholesterol-free media + simvastatin (0.04 μM), […]) was −0.95 and the Cholesterol-free [2, 18] was 0.9586. It also gave a Complete [2, 19] of 1.127 and a Difference ([2]; complete vs cholesterol-free media, […]) of 0.17.

`NC(=O)c1cccc2cn(-c3ccc([C@@H]4CCCNC4)cc3)nc12` [Niraparib] was tested, and the “Cholesterol-free media + simvastatin (0.04 μM)” value [1, 9] was 1.191, the “Complete Media” value [1, 10] was 1.193 and the Difference [1, 11] was 0.00. The Difference [2, 17] was −0.30, the Cholesterol-free [2, 15] was 1.29 and the Complete ([2]; NCI-H292 cells, complete media) was 0.9917.

With `CC12CCC(CC1=O)C2(C)C` (stereo not drawn) [Camphor] the “Cholesterol-free media + simvastatin (0.04 μM)” value [1, 20] was 1.13, the “Complete Media” value [1, 21] was 0.9969 and the Difference [1, 5] was −0.13. It also gave a Difference [2, 12] of −0.48, a Cholesterol-free [2, 13] of 1.372 and a Complete [2, 14] of 0.8909.

With `N[C@@H](CC(=O)N1CCn2c(nnc2C(F)(F)F)C1)Cc1cc(F)c(F)cc1F` [Sitagliptin] the “Cholesterol-free media + simvastatin (0.04 μM)” value [1, 20] was 1.605, the “Complete Media” value [1, 21] was 1.493 and the Difference [1, 5] was −0.11. The Difference [2, 6] was −0.08, the Cholesterol-free [2, 7] was 0.9944 and the Complete [2, 8] was 0.9145.

For `CC#CC(=O)N1CCC[C@H]1c1nc(-c2ccc(C(=O)Nc3ccccn3)cc2)c2c(N)nccn12` [Acalabrutinib], the “Cholesterol-free media + simvastatin (0.04 μM)” value [1, 20] was 1.302, the “Complete Media” value [1, 21] was 1.618 and the Difference ([1]; complete media minus cholesterol-free media + simvastatin, >0 enhanced anti-cancer activity, about 0 neutral, <0 antagonist) was 0.32. It also gave a Cholesterol-free [2, 18] of 0.7449, a Complete [2, 19] of 0.989 and a Difference [2, 22] of 0.24.

With `CC(C)(C)NC[C@H](O)COc1cccc2c1CCCC2=O` [Levobunolol (hydrochloride)] the “Cholesterol-free media + simvastatin (0.04 μM)” value [1, 9] was 0.9864, the “Complete Media” value [1, 10] was 0.921 and the Difference [1, 11] was −0.07. For the same compound, the Cholesterol-free [2, 18] was 0.4904, the Complete [2, 19] was 1.134 and the Difference [2, 22] was 0.64.

In the case of `CC(=O)O[C@]1(C(C)=O)CC[C@H]2[C@@H]3CCC4=CC(=O)CCC4=C3[C@@H](c3ccc(N(C)C)cc3)C[C@@]21C` [Ulipristal acetate], the “Cholesterol-free media + simvastatin (0.04 μM)” value [1, 9] is reported as 0.6984, the “Complete Media” value [1, 10] is reported as 0.695 and the Difference [1, 11] is reported as 0.00. It also gave a Cholesterol-free [2, 15] of 1.13, a Complete ([2]; NCI-H292 cells, complete media) of 0.8186 and a Difference [2, 16] of −0.31.

`CS(=O)(=O)OC[C@H](O)[C@@H](O)COS(C)(=O)=O` [Treosulfan] was tested, and the “Cholesterol-free media + simvastatin (0.04 μM)” value ([1]; drug in cholesterol-free media with simvastatin 0.04 μM) was 1.216, the “Complete Media” value ([1]; drug in complete media) was 1.032 and the Difference [1, 5] was −0.18. The Difference [2, 12] was −0.50, the Cholesterol-free [2, 13] was 1.319 and the Complete [2, 14] was 0.8211.
